Test results from publication PMC12441857, “Cannabinoid CB1 Receptor Activation Mitigates N‑Methyl‑D‑aspartate Receptor-Mediated Neurotoxicity” (ACS Pharmacology & Translational Science, 2025).

Molecular target: T1, cannabinoid CB1 receptor (CB1R) (Homo sapiens, UniProt P21554)
T1 construct: gene CNR1; SNAP-tagged CB1R in HEK-293T cells
Experiment: HTRF (Tag-lite) competition binding against fluorescent CELT-335
Format: cell-based

T1 sequence (P21554 whole entry): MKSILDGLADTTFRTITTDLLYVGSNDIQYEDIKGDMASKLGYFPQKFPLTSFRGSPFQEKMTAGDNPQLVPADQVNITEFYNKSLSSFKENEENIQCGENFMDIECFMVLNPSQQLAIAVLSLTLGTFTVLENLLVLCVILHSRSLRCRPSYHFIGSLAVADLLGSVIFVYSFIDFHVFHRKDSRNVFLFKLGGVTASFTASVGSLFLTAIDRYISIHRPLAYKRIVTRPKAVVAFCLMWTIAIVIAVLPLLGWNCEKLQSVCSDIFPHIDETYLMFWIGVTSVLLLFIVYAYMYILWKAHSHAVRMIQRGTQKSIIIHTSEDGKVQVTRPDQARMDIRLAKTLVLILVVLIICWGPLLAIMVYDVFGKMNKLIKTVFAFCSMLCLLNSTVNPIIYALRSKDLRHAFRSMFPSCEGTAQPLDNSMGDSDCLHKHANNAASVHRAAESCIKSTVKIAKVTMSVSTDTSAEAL

`CCCCC/C=C\C/C=C\C/C=C\C/C=C\CCCC(=O)NCCCl` [ACEA] showed a Ki of 4.8 nM.
